Values of other authors in patent US9260429B2, “Pyrido[3,4-B]indoles and methods of use” (Medivation Technologies, Inc., priority 2008, dated 2016).

Assays:
neuronal cells = details: cited from earlier work
brain cells (neurons) = details: preclinical models of Alzheimer's disease and Huntington's disease; cited from earlier work
[1] = system: cells treated with ionomycin; details: after treatment with the cell toxin ionomycin; dose dependent; cited from earlier work

**Q.** What does the source list for Cc1ccc2c(c1)c1c(n2CCc2ccc(C)nc2)CCN(C)C1 [Dimebon, dimebon]?
**A.** neurite outgrowth and neurogenesis (neuronal cells): promote neurite outgrowth and neurogenesis; death of brain cells (neurons) (brain cells (neurons)): inhibit the death of brain cells (neurons); mitochondrial function [1]: improved mitochondrial function; number of surviving cells [1]: increased the number of surviving cells
